Assay results: patent US20090131416A1, “SUBSTITUTED PYRAZINYL AMIDE COMPOUNDS AS MODULATORS OF THE HISTAMINE H3 RECEPTOR” (priority 2007, published 2009)

Assays:
[1] = biological target: T1, cloned human H3 receptors (Homo sapiens, UniProt Q9Y5N1); assay: H3 Receptor Binding (Human); conditions: cloned human H3 receptors stably expressed in SK-N-MC cells; average of results
T1 construct: expressed in transfected cells; host or cells: SK-N-MC cells
Description: Binding of compounds to the cloned human H3 receptors, stably expressed in SK-N-MC cells, was performed as described by Barbier, A. J. et al. (Br. J. Pharmacol. 2004, 143(5), 649-661). Data for compounds tested in this assay are presented in Table 1, as an average of results obtained.

rat H3 receptor = biological target: T2, rat H3 receptor (Rattus norvegicus, UniProt Q9QYN8); assay: Cyclic AMP Accumulation (rat H3); type: cell-based; conditions: SK-N-MC cells expressing reporter construct and rat H3 receptor; read-out: Rat pA2 (converted)
T2 construct: expressed in transfected cells; host or cells: SK-N-MC cell sublines
T2 sequence (Q9QYN8 whole entry): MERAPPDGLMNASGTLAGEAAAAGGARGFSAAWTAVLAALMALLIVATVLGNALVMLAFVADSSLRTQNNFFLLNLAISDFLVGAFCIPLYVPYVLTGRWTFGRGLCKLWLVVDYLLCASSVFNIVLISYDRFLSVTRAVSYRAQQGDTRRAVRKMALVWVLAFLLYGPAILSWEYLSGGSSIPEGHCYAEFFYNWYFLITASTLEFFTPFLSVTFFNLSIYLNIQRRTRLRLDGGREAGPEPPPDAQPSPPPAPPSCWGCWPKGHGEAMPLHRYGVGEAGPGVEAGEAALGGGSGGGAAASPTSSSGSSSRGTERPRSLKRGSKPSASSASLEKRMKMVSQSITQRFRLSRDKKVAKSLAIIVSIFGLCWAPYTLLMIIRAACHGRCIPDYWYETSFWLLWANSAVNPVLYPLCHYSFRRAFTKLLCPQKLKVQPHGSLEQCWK
Description: (§1) Sublines of SK-N-MC cells were created that expressed a reporter construct and either the human or rat H3 receptor. The pA2 values were obtained as described by Barbier et al. (2004).

human H3 receptor = biological target: T3, human H3 receptor (Homo sapiens, UniProt Q9Y5N1); assay: Cyclic AMP Accumulation (human H3); type: cell-based; conditions: SK-N-MC cells expressing reporter construct and human H3 receptor; read-out: Human pA2 (converted)
T3 construct: expressed in transfected cells; host or cells: SK-N-MC cell sublines
T3 sequence (Q9Y5N1 whole entry): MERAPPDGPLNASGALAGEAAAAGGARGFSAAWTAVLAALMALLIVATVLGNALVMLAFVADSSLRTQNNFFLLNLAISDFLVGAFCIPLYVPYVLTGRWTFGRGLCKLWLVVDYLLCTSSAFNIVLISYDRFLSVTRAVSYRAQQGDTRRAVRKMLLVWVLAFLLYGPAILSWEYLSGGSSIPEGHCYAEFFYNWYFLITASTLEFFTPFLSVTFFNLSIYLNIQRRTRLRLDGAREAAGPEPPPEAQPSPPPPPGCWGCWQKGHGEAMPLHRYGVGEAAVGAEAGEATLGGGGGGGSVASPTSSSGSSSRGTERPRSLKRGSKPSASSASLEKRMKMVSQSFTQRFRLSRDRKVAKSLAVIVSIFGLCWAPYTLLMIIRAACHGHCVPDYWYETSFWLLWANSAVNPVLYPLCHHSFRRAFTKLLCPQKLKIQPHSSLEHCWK
Description: as §1

[2] = biological target: T4, rat H3 receptor (rat brain membranes) (Rattus norvegicus, UniProt Q9QYN8); assay: H3 Receptor Binding (Rat); conditions: rat brain membranes without cerebellum; 0.8 nM N-[3H]-α-methylhistamine; 60 min at 25° C.
T4 construct: A rat brain without cerebellum (Zivic Laboratories Inc., Pittsburgh, Pa.) was homogenized; tissue Zivic Laboratories Inc; host or cells: rat brain without cerebellum, membranes
T4 sequence (Q9QYN8 whole entry): as the sequence (Q9QYN8 whole entry) above
Description: A rat brain without cerebellum (Zivic Laboratories Inc., Pittsburgh, Pa.) was homogenized in 50 mM Tris-HCl/5 mM EDTA and centrifuged at 1,000 rpm for 5 min. The supernatant was removed and recentrifuged at 15,000 rpm for 30 min. Pellets were rehomogenized in 50 mM Tris/5 mM EDTA (pH 7.4). Membranes were incubated with 0.8 nM N-[^3H]-α-methylhistamine plus/minus test compounds for 60 min at 25° C. and harvested by rapid filtration over GF/C glass fiber filters (pretreated with 0.3% polyethylenimine) followed by four washes with buffer. Nonspecific binding was defined in the presence of 100 μM histamine. Inhibitory concentration (responsible for 50% inhibition of maximal effect, IC50) values were determined by a single site curve-fitting program (GraphPad, San Diego, Calif.) and converted to Ki values based on a N-[^3H]-α-methylhistamine dissociation constant (Kd) of 0.8 nM. The following results were obtained: Example 2, 34 nM; Example 3, 33 nM; Example 4,18 nM; Example 5, 9.2 nM.

T1 sequence (Q9Y5N1 whole entry): as the sequence (Q9Y5N1 whole entry) above

| SMILES | Ki [1] | Kb (rat H3 receptor) | Kb (human H3 receptor) | Ki [2] |
| --- | --- | --- | --- | --- |
| O=C(c1cnc(OC2CCCCC2)cn1)N1CCCN(C2CCC2)CC1 [Example 11, (4-Cyclobutyl-[1,4]diazepan-1-yl)-(5-cyclohexyloxy-pyrazin-2-yl)-methanone] | 3.2 nM | 9.55 nM | 0.525 nM | – |
| O=C(c1cnc(Oc2ccc(Cl)cc2)cn1)N1CCCN(C2CCC2)CC1 [Example 3, [5-(4-Chloro-phenoxy)-pyrazin-2-yl]-(4-cyclobutyl-[1,4]diazepan-1-yl)-methanone] | 3.7 nM | 12.6 nM | 1.2 nM | 33 nM |
| N#Cc1cccc(Oc2cnc(C(=O)N3CCCN(C4CCC4)CC3)cn2)c1 [Example 5, 3-[5-(4-Cyclobutyl-[1,4]diazepane-1-carbonyl)-pyrazin-2-yloxy]-benzonitrile] | 1.5 nM | – | – | 9.2 nM |
| O=C(c1cnc(OC2CCCCC2)cn1)N1CCN(C2CCC2)CC1 [Example 12, (4-Cyclobutyl-piperazin-1-yl)-(5-cyclohexyloxy-pyrazin-2-yl)-methanone] | 51 nM | – | – | – |
| O=C(c1cnc(Oc2ccccc2)cn1)N1CCN(C2CCC2)CC1 [Example 7, (4-Cyclobutyl-piperazin-1-yl)-(5-phenoxy-pyrazin-2-yl)-methanone] | 36 nM | – | – | – |
| O=C(c1cnc(Oc2cccc(F)c2)cn1)N1CCN(C2CCC2)CC1 [Example 9, (4-Cyclobutyl-piperazin-1-yl)-[5-(3-fluoro-phenoxy)-pyrazin-2-yl]-methanone] | 37 nM | – | – | – |
| O=C(c1cnc(Oc2ccccc2)cn1)N1CCCN(C2CCC2)CC1 [Example 2, (4-Cyclobutyl-[1,4]diazepan-1-yl)-(5-phenoxy-pyrazin-2-yl)-methanone] | 2.9 nM | – | – | 34 nM |
| O=C(c1cnc(Oc2ccc(Cl)cc2)cn1)N1CCN(C2CCC2)CC1 [Example 8, [5-(4-Chloro-phenoxy)-pyrazin-2-yl]-(4-cyclobutyl-piperazin-1-yl)-methanone] | 38 nM | – | – | – |

Further compounds by falling Ki [1], results first:

| Ki [1] | Kb (rat H3 receptor) | Kb (human H3 receptor) | Ki [2] | SMILES |
| --- | --- | --- | --- | --- |
| 28 nM | – | – | – | N#Cc1cccc(Oc2cnc(C(=O)N3CCN(C4CCC4)CC3)cn2)c1 [Example 10, 3-[5-(4-Cyclobutyl-piperazine-1-carbonyl)-pyrazin-2-yloxy]-benzonitrile] |
| 19 nM | – | – | – | O=C(c1cnc(Oc2ccc(F)cc2)cn1)N1CCN(C2CCC2)CC1 [Example 6, (4-Cyclobutyl-piperazin-1-yl)-[5-(4-fluoro-phenoxy)-pyrazin-2-yl]-methanone] |
| 2.6 nM | 6.92 nM | 0.537 nM | 18 nM | O=C(c1cnc(Oc2cccc(F)c2)cn1)N1CCCN(C2CCC2)CC1 [Example 4, (4-Cyclobutyl-[1,4]diazepan-1-yl)-[5-(3-fluoro-phenoxy)-pyrazin-2-yl]-methanone] |
| 2.4 nM | 13.5 nM | 0.871 nM | – | O=C(c1cnc(Oc2ccc(F)cc2)cn1)N1CCCN(C2CCC2)CC1 [Example 1, (4-Cyclobutyl-[1,4]diazepan-1-yl)-[5-(4-fluoro-phenoxy)-pyrazin-2-yl]-methanone] |
